Our source for the IC50 values is US7799805B2, “Piperidine carboxylic acid amide derivatives” (Actelion Pharmaceuticals Ltd., priority 2005, dated 2010).

One may read the IC50 as the midpoint of a concentration-inhibition curve.

The test addresses T1, recombinant human renin (Homo sapiens, UniProt P00797).
T1 sequence (P00797 67-406): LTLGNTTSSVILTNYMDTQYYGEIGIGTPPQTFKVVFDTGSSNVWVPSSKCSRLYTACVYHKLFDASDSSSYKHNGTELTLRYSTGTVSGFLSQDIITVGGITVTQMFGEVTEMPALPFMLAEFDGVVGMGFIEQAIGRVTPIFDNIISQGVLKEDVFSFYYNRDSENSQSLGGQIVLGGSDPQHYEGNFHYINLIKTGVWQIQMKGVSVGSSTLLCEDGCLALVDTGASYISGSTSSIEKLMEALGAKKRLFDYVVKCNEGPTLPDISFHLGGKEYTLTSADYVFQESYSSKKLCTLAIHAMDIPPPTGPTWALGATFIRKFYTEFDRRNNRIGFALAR
The test is described as follows: Primary renin inhibition assay: IC50 in buffer, 384 well MTP (AngI quantified by EIA).

Description: Enzyme Immuno Assay (EIA) to Estimate AngI Accumulation and Renin Inhibition
96 well MTP (MaxiSorp™, Nunc) were coated with 200 μl conjugate and blocked with 250 μl blocking solution as above, except that the blocking solution contained 3% BSA.
1.3 AngI-EIA in 384 well MTP
The AngI (1-10)/BSA coated MTP were washed 3 times with wash buffer (PBS 1×, 0.01% Tween 20) and filled with 75 μl of primary antibody solution (anti-AngI antiserum, pre-diluted 1:10 in horse serum), diluted to a final concentration of 1:100,000 in assay buffer (PBS 1×, 1 mM EDTA, 0.1% BSA, pH 7.4). 5 μl of the renin reaction (or standards in assay buffer) (see below) were added to the primary antibody solution and the plates were incubated overnight at 4° C. After the incubation the plates were washed 3 times with wash buffer and incubated with secondary antibody [anti-rabbit IgG, linked to horseradish peroxidase (Amersham Bioscience, NA 934V), diluted 1:2,000 in wash buffer] for 2 h at rt. […]
In the second step, the accumulated AngI is measured by an immunological assay (enzyme immuno assay, EIA). […]
Test compounds were dissolved and diluted in 100% DMSO and 2.5 μl added to the premix, then incubated at 37° C. for 3 h. At the end of the incubation period, 5 μl of the renin reaction (or standards in assay buffer) were transferred into EIA assays (as described above) and AngI produced by renin was quantified.

Regarding `O=C([C@H]1[C@H]2CNC[C@@H](C[C@H]1c1ccc(CCCOc3c(F)ccc(F)c3Cl)cc1)N2)N(Cc1cccc(Cl)c1Cl)C1CC1` (racemic) [Example 1, (rac.)-(1R*,5S*,6R*,7R*)-7-{4-[3-(2-Chloro-3,6-difluoro-phenoxy)-propyl]-phenyl}-3,9-diaza-bicyclo[3.3.1]nonane-6-carboxylic acid cyclopropyl-(2,3-dichloro-benzyl)-amide], the IC50 came to 650 pM.

On to `O=C([C@@H]1[C@@H](c2ccc(CCCOc3c(F)ccc(F)c3Cl)cc2)C[C@@H]2CNC[C@H]1N2)N(Cc1cccc(Cl)c1Cl)C1CC1` (racemic) [Example 2, (rac.)-(1R*,5S*,6R*,7S*)-7-{4-[3-(2-Chloro-3,6-difluoro-phenoxy)-propyl]-phenyl}-3,9-diaza-bicyclo[3.3.1]nonane-6-carboxylic acid cyclopropyl-(2,3-dichloro-benzyl)-amide], for which the IC50 was determined as 190 pM.
